{"source": "patent US8192962B2", "about": "“Processes for detecting toxic substances” (Daikin Industries, Ltd., priority 2001, dated 2012)", "tested_on": "Transport facilitation protein genes", "experiment": "DNA chip mRNA expression in yeast, transport facilitation protein genes (Table 5)", "assay_type": "cell-based, Saccharomyces cerevisiae S288C", "experimental": "Yeast (Saccharomyces cerevisiae S288C (α SUC2mal mel gap2 CUP1)) were incubated at 25° C. on YPD medium (yeast extract 1%, polypepton 2%, glucose 2%). One of toxic chemical substances was added to the cells at logarithmic growth phase, and the cells were further incubated for two hours. Cells were cultured without any chemical substance in the same condition, and were used as control. Concentrations of the chemical substances were defined to inhibit the growth of the yeast but not lead to death.\nAfter completion of the incubation, the culture was centrifuged to collect the cells. To the cells, sodium acetate buffer (50 mM sodium acetate, 10 mM EDTA, 1% SDS) was added, and the mixture was shaken at 65° C. for five minutes, followed by returning to room temperature, and obtaining the supernatant, of which the procedures were repeated two times. To the supernatant, ½ amount of a solution of phenol/chloroform was added, and the mixture was centrifuged to give a supernatant, which was added with an equal amount of chloroform, and the mixture was centrifuged to give a supernatant. To the supernatant, an equal amount of isopropanol containing 0.3 M sodium acetate was added, and the mixture was allowed to stand at room temperature for 30 minutes, after which the mixture was centrifuged to give a sediment of the whole RNAs. Seventy % ethanol was added to the sediment, and the mixture was again centrifuged to give a sediment, which was then dried and dissolved in water. mRNA was isolated from the whole RNAs as followings. In view of the fact that a poly A chain is attached to the 3′ terminus of mRNA, a polynucleotide having a poly T structure which was immobilized on the surface of latex beads was used to trap the mRNA, and then the mRNA was washed and eluted with spine column (Oligotex-dT30<Super>mRNA Purification Kit, Takara). Reverse transcription of the mRNA was conducted with a reverse transcriptase (Super Script II Reverse Transcriptase; catalogue No. 18064-014, GibcoBRL) using fluorescence-labeled nucleotides to give cDNAs that were introduced with Cy3-dUTP or Cy5-dUTP during the reverse transcription.\nThe labeled cDNAs were dissolved in TE buffer (10mM Tris-HCl/1 mM EDTA, pH8.0), and the solution was dropped on the DNA chip containing the whole genes of yeast (DNA Chip Research Inc. Japan) so that the cDNAs were hybridized on the DNA chip at 65° C. for over 12 hours. The fluoresces intensity of the DNA chip was read with a scanner, and the ratio relative to the fluorescence intensity resulting from the absence of chemical substance was estimated as the following, which is shown in Tables 1 to 9: […]", "data": [{"smiles": "[Cl][Pb][Cl]", "note": "[(4), PbCl2]", "values": [{"measurement": "The level of expressed mRNA in the presence of chemical substance/The level of expressed mRNA in the absence of chemical substance", "setting": "yeast gene YGR260W", "result": 0.8}, {"measurement": "The level of expressed mRNA in the presence of chemical substance/The level of expressed mRNA in the absence of chemical substance", "setting": "yeast gene YGR281W", "result": 2.2}, {"measurement": "The level of expressed mRNA in the presence of chemical substance/The level of expressed mRNA in the absence of chemical substance", "setting": "yeast gene YHL035C", "result": 1.9}, {"measurement": "The level of expressed mRNA in the presence of chemical substance/The level of expressed mRNA in the absence of chemical substance", "setting": "yeast gene YHL040C", "result": 0.4}, {"measurement": "The level of expressed mRNA in the presence of chemical substance/The level of expressed mRNA in the absence of chemical substance", "setting": "yeast gene YHL047C", "result": 1.0}, {"measurement": "The level of expressed mRNA in the presence of chemical substance/The level of expressed mRNA in the absence of chemical substance", "setting": "yeast gene YHR026W", "result": 1.0}, {"measurement": "The level of expressed mRNA in the presence of chemical substance/The level of expressed mRNA in the absence of chemical substance", "setting": "yeast gene YHR092C", "result": 2.5}, {"measurement": "The level of expressed mRNA in the presence of chemical substance/The level of expressed mRNA in the absence of chemical substance", "setting": "yeast gene YHR094C", "result": 1.6}, {"measurement": "The level of expressed mRNA in the presence of chemical substance/The level of expressed mRNA in the absence of chemical substance", "setting": "yeast gene YHR175W", "result": 1.5}, {"measurement": "The level of expressed mRNA in the presence of chemical substance/The level of expressed mRNA in the absence of chemical substance", "setting": "yeast gene YIL006W", "result": 2.9}, {"measurement": "The level of expressed mRNA in the presence of chemical substance/The level of expressed mRNA in the absence of chemical substance", "setting": "yeast gene YIL022W", "result": 1.6}, {"measurement": "The level of expressed mRNA in the presence of chemical substance/The level of expressed mRNA in the absence of chemical substance", "setting": "yeast gene YIL056W", "result": 1.4}, {"measurement": "The level of expressed mRNA in the presence of chemical substance/The level of expressed mRNA in the absence of chemical substance", "setting": "yeast gene YIL088C", "result": 1.3}, {"measurement": "The level of expressed mRNA in the presence of chemical substance/The level of expressed mRNA in the absence of chemical substance", "setting": "yeast gene YJL034W", "result": 0.8}, {"measurement": "The level of expressed mRNA in the presence of chemical substance/The level of expressed mRNA in the absence of chemical substance", "setting": "yeast gene YJL212C", "result": 0.5}, {"measurement": "The level of expressed mRNA in the presence of chemical substance/The level of expressed mRNA in the absence of chemical substance", "setting": "yeast gene YJL219W", "result": 1.6}, {"measurement": "The level of expressed mRNA in the presence of chemical substance/The level of expressed mRNA in the absence of chemical substance", "setting": "yeast gene YJR077C", "result": 1.6}, {"measurement": "The level of expressed mRNA in the presence of chemical substance/The level of expressed mRNA in the absence of chemical substance", "setting": "yeast gene YJR106W", "result": 1.1}, {"measurement": "The level of expressed mRNA in the presence of chemical substance/The level of expressed mRNA in the absence of chemical substance", "setting": "yeast gene YJR121W", "result": 1.0}, {"measurement": "The level of expressed mRNA in the presence of chemical substance/The level of expressed mRNA in the absence of chemical substance", "setting": "yeast gene YKL016C", "result": 1.7}, {"measurement": "The level of expressed mRNA in the presence of chemical substance/The level of expressed mRNA in the absence of chemical substance", "setting": "yeast gene YKL146W", "result": 0.9}, {"measurement": "The level of expressed mRNA in the presence of chemical substance/The level of expressed mRNA in the absence of chemical substance", "setting": "yeast gene YKR039W", "result": 1.7}, {"measurement": "The level of expressed mRNA in the presence of chemical substance/The level of expressed mRNA in the absence of chemical substance", "setting": "yeast gene YKR067W", "result": 2.5}, {"measurement": "The level of expressed mRNA in the presence of chemical substance/The level of expressed mRNA in the absence of chemical substance", "setting": "yeast gene YLL028W", "result": 0.5}, {"measurement": "The level of expressed mRNA in the presence of chemical substance/The level of expressed mRNA in the absence of chemical substance", "setting": "yeast gene YLR081W", "result": 3.6}, {"measurement": "The level of expressed mRNA in the presence of chemical substance/The level of expressed mRNA in the absence of chemical substance", "setting": "yeast gene YLR295C", "result": 1.7}, {"measurement": "The level of expressed mRNA in the presence of chemical substance/The level of expressed mRNA in the absence of chemical substance", "setting": "yeast gene YLR348C", "result": 1.2}, {"measurement": "The level of expressed mRNA in the presence of chemical substance/The level of expressed mRNA in the absence of chemical substance", "setting": "yeast gene YLR378C", "result": 0.5}, {"measurement": "The level of expressed mRNA in the presence of chemical substance/The level of expressed mRNA in the absence of chemical substance", "setting": "yeast gene YMR011W", "result": 5.5}, {"measurement": "The level of expressed mRNA in the presence of chemical substance/The level of expressed mRNA in the absence of chemical substance", "setting": "yeast gene YMR162C", "result": 2.0}, {"measurement": "The level of expressed mRNA in the presence of chemical substance/The level of expressed mRNA in the absence of chemical substance", "setting": "yeast gene YMR203W", "result": 1.4}, {"measurement": "The level of expressed mRNA in the presence of chemical substance/The level of expressed mRNA in the absence of chemical substance", "setting": "yeast gene YNL055C", "result": 2.0}, {"measurement": "The level of expressed mRNA in the presence of chemical substance/The level of expressed mRNA in the absence of chemical substance", "setting": "yeast gene YNL259C", "result": 1.2}, {"measurement": "The level of expressed mRNA in the presence of chemical substance/The level of expressed mRNA in the absence of chemical substance", "setting": "yeast gene YNR072W", "result": 0.7}, {"measurement": "The level of expressed mRNA in the presence of chemical substance/The level of expressed mRNA in the absence of chemical substance", "setting": "yeast gene YOL119C", "result": 2.3}, {"measurement": "The level of expressed mRNA in the presence of chemical substance/The level of expressed mRNA in the absence of chemical substance", "setting": "yeast gene YOL156W", "result": 1.1}, {"measurement": "The level of expressed mRNA in the presence of chemical substance/The level of expressed mRNA in the absence of chemical substance", "setting": "yeast gene YOL163W", "result": 3.3}, {"measurement": "The level of expressed mRNA in the presence of chemical substance/The level of expressed mRNA in the absence of chemical substance", "setting": "yeast gene YOR035C", "result": 1.2}, {"measurement": "The level of expressed mRNA in the presence of chemical substance/The level of expressed mRNA in the absence of chemical substance", "setting": "yeast gene YOR130C", "result": 1.0}, {"measurement": "The level of expressed mRNA in the presence of chemical substance/The level of expressed mRNA in the absence of chemical substance", "setting": "yeast gene YOR153W", "result": 1.1}, {"measurement": "The level of expressed mRNA in the presence of chemical substance/The level of expressed mRNA in the absence of chemical substance", "setting": "yeast gene YOR273C", "result": 1.0}, {"measurement": "The level of expressed mRNA in the presence of chemical substance/The level of expressed mRNA in the absence of chemical substance", "setting": "yeast gene YOR316C", "result": 1.5}, {"measurement": "The level of expressed mRNA in the presence of chemical substance/The level of expressed mRNA in the absence of chemical substance", "setting": "yeast gene YOR328W", "result": 1.0}, {"measurement": "The level of expressed mRNA in the presence of chemical substance/The level of expressed mRNA in the absence of chemical substance", "setting": "yeast gene YOR332W", "result": 1.0}, {"measurement": "The level of expressed mRNA in the presence of chemical substance/The level of expressed mRNA in the absence of chemical substance", "setting": "yeast gene YOR348C", "result": 2.0}, {"measurement": "The level of expressed mRNA in the presence of chemical substance/The level of expressed mRNA in the absence of chemical substance", "setting": "yeast gene YPL036W", "result": 0.9}, {"measurement": "The level of expressed mRNA in the presence of chemical substance/The level of expressed mRNA in the absence of chemical substance", "setting": "yeast gene YPL134C", "result": 1.6}, {"measurement": "The level of expressed mRNA in the presence of chemical substance/The level of expressed mRNA in the absence of chemical substance", "setting": "yeast gene YPL271W", "result": 1.2}, {"measurement": "The level of expressed mRNA in the presence of chemical substance/The level of expressed mRNA in the absence of chemical substance", "setting": "yeast gene YPR192W", "result": 5.0}, {"measurement": "The level of expressed mRNA in the presence of chemical substance/The level of expressed mRNA in the absence of chemical substance", "setting": "yeast gene YPR194C", "result": 2.9}]}]}
